We go through 39 compounds from article PMC7534336, “New classes of potent heparanase inhibitors from ligand-based virtual screening” (Journal of Enzyme Inhibition and Medicinal Chemistry, 2020).

This assay addresses human GS3 heparanase (Homo sapiens, UniProt Q9Y251). Description: fondaparinux assay of heparanase enzymatic activity (WST-1 colorimetric). The class given is biochemical. The note with it: for % inhib @2.5 M ± SD: fixed concentration 2.5 µM (2.5 M [sic]); for % inhib @25 M ± SD: fixed concentration 25 µM (25 M [sic]). From the text:
To determine the activity of the heparanase inhibitors, a homogeneous assay based on the cleavage of the synthetic heparin oligosaccharide fondaparinux (Arixtra; Aspen) was used. The assay measures colorimetrically the appearance of the disaccharide product of heparanase-catalysed fondaparinux cleavage using the tetrazolium salt WST-1. The assay was essentially performed as described[39] with minor modifications. Briefly, Nunc 96-well (Thermo Fisher Scientific) plates were pre-treated with a solution of 4% BSA (bovine serum albumin, Sigma-Aldrich) in phosphate-buffered saline containing 0.05% Tween 20 (PBST), for 2 h at 37 °C, and then washed three times with PBST. […] The IC50 value for each compound was calculated by GraphPad software. Finally, the measurements were corrected by subtracting both the reagent background and the inner absorbance value of test compound.
Supporting Table S1 reports the structures of the fifty-five compounds purchased and tested, with information, for each compound, on the database from which it was retrieved, the reference inhibitor used to retrieve it and the similarity value with the reference inhibitor.

[1] abbreviates: Table S1, fondaparinux assay on GS3 heparanase, read-out: IC50 (M) ± SD.
The mark [2] stands for this setting: fondaparinux assay on human GS3 heparanase, mean of triplicates, read-out: IC50 (µM) ± SD, heparanase inhibitory activity.
[3] abbreviates: fondaparinux assay on human GS3 heparanase, mean of triplicates.

Values joined by “and” are separate entries in the source; they are usually repeats but may differ in a detail not shown here. Equal values may be shown once. Read-outs that look alike come from different tables or passages of the source.

Chain of human GS3 heparanase (Q9Y251 other isoform, or with tags, fused parts or gaps): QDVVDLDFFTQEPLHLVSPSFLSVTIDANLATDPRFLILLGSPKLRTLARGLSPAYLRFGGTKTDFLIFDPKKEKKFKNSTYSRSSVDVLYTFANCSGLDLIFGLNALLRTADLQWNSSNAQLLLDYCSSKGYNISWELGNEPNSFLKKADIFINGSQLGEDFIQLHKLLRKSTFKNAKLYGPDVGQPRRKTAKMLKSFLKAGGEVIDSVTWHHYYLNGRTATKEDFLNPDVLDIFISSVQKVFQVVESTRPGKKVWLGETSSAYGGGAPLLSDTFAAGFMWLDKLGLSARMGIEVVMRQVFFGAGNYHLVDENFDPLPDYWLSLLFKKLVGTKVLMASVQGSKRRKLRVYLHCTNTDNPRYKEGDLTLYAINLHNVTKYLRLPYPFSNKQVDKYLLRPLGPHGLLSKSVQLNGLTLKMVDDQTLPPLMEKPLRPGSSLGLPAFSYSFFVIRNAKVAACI

As usually defined, the IC50 is the concentration that inhibits the measured activity by half. As to `O=C(O)COc1ccc(N2C(=O)c3ccc(Oc4ccc5c(c4)C(=O)N(c4ccc(OCC(=O)O)cc4)C5=O)cc3C2=O)cc1` [Compound 37], the IC50 under setting [1] is over 5e-06 M.
As to `O=C(Nc1nc(-c2ccc(F)cc2)cs1)c1ccc(Oc2ccc(C(=O)Nc3nc(-c4ccc(F)cc4)cs3)cc2)cc1` [Compound 43], where the note is “Table S1”, the “% inhib @2.5 M ± SD” value amounted to 44 ± 1% and the “% inhib @25 M ± SD” value is 67 ± 4%.
In the case of `O=C(Nc1c[nH]c(=O)[nH]c1=O)c1ccc2c(c1)C(=O)N(c1ccc(Oc3ccc(N4C(=O)c5ccc(C(=O)Nc6c[nH]c(=O)[nH]c6=O)cc5C4=O)cc3)cc1)C2=O` [Compound 45], where the note is “Table S1”, the “% inhib @2.5 M ± SD” value was found to be 41 ± 3% and the “% inhib @25 M ± SD” value was 67 ± 4%.
In the case of `O=C(Nc1ccccc1C(=O)O)c1ccc2c(c1)C(=O)N(c1ccc(S(=O)(=O)c3ccc(N4C(=O)c5ccc(C(=O)Nc6ccccc6C(=O)O)cc5C4=O)cc3)cc1)C2=O` [Compound 24], under setting [2], the IC50 turned out to be 1.1e-06 ± 1.3e-07 M.
Regarding `O=C(Nc1ccc(Oc2ccc(NC(=O)c3ccc4c(c3)C(=O)N(c3nccs3)C4=O)cc2)cc1)c1ccc2c(c1)C(=O)N(c1nccs1)C2=O` [Compound 44], for the setting “Table S1”, the “% inhib @2.5 M ± SD” value was 62 ± 2% and the “% inhib @25 M ± SD” value is on record as 60 ± 5%.
On the same counts, the results for `O=C(Nc1cccc(C(=O)Nc2cc(C(=O)Nc3ccc(S(=O)(=O)O)c4cc(S(=O)(=O)O)cc(S(=O)(=O)O)c34)ccc2F)c1)Nc1cccc(C(=O)Nc2cc(C(=O)Nc3ccc(S(=O)(=O)O)c4cc(S(=O)(=O)O)cc(S(=O)(=O)O)c34)ccc2F)c1` [Compound 10] are 39 ± 3% and 100 ± 1%.
`O=C(Nc1ccc(Br)cc1C(=O)O)c1ccc(Oc2ccc(C(=O)Nc3ccc(Br)cc3C(=O)O)cc2)cc1` [Compound 21]: under setting [2], the IC50 is 2.66e-06 ± 3.2e-07 M.
Take `O=C(Nc1ccccc1Oc1ccc(C(=O)O)c(C(=O)O)c1)c1ccc(Oc2ccc(C(=O)Nc3ccccc3Oc3ccc(C(=O)O)c(C(=O)O)c3)cc2)cc1` [Compound 22]: under “Table S1”, the “% inhib @2.5 M ± SD” value turned out to be 21 ± 1% and the “% inhib @25 M ± SD” value came out at 60 ±1%.
Regarding `O=C(O)/C=C/C(=O)Nc1ccc(Sc2ccc(Oc3ccc(Sc4ccc(NC(=O)/C=C/C(=O)O)cc4)cc3)cc2)cc1` [Compound 35], the IC50 under setting [2] amounted to 5.2e-07 ± 2e-08 M.
Turning to `O=C(O)c1ccc(NC(=O)c2ccc(S(=O)(=O)c3ccc(C(=O)Nc4ccc(C(=O)O)cc4)cc3)cc2)cc1` [Compound 55], under “Table S1”, the “% inhib @2.5 M ± SD” value came to 30 ± 4% and the “% inhib @25 M ± SD” value was found to be 43 ± 7%.
On to `O=C(O)c1ccc(Oc2ccc3c(c2)C(=O)N(c2ccc(Oc4ccc(N5C(=O)c6ccc(Oc7ccc(C(=O)O)cc7)cc6C5=O)cc4)cc2)C3=O)cc1` [Compound 34], for which, under setting [2], the IC50 worked out at 3.15e-06 ± 2.8e-07 M.
For `O=C(Nc1cccc(-c2nc3ccccc3s2)c1)c1ccc(Oc2ccc(C(=O)Nc3cccc(-c4nc5ccccc5s4)c3)cc2)cc1` [Compound 38], the IC50 under setting [1] was determined as 5.75e-06 ± 5e-08 M.
For `Cc1c(NS(=O)(=O)c2cc(C(=O)Nc3ccc(-c4nc5ccccc5[nH]4)cc3)ccc2Cl)c(=O)n(-c2ccccc2)n1C` [Compound 28], under “Table S1”, the “% inhib @2.5 M ± SD” value stood at 14 ± 6% and the “% inhib @25 M ± SD” value was 59 ± 5%.
In the same order, the values of `COc1cc(N=Nc2cccc(S(=O)(=O)O)c2)ccc1NC(=O)Nc1ccc(N=Nc2ccc(O)c(C(=O)O)c2)cc1` [Compound 17] are 14 ± 2% and 95 ± 1%.
As for `O=C(Nc1ccc2c(O)c(N=Nc3ccc(N=Nc4ccc(S(=O)(=O)O)cc4)cc3S(=O)(=O)O)c(S(=O)(=O)O)cc2c1)Nc1ccc2c(O)c(N=Nc3ccc(N=Nc4ccc(S(=O)(=O)O)cc4)cc3S(=O)(=O)O)c(S(=O)(=O)O)cc2c1` [Compound 15], the IC50 under setting [2] stood at 9.3e-07 ± 7e-08 M.
Consider `O=C(Nc1ccc2c(O)c(N=Nc3ccccc3)c(S(=O)(=O)O)cc2c1)Nc1ccc2c(O)c(N=Nc3ccccc3)c(S(=O)(=O)O)cc2c1` [Compound 18], for which, where the note is “Table S1”, the “% inhib @2.5 M ± SD” value stood at 12 ± 3% and the “% inhib @25 M ± SD” value amounted to 11 ± 3%.
Regarding `O=C(O)c1ccccc1N1C(=O)c2ccc(Oc3ccc(Oc4ccc5c(c4)C(=O)N(c4ccccc4C(=O)O)C5=O)cc3)cc2C1=O` [Compound 58], under setting [2], the IC50 is < 5e-06 M and 3.78e-06 M.
Take `O=C(Nc1ccc(O)cc1C(=O)O)c1ccc(S(=O)(=O)c2ccc(C(=O)Nc3ccc(O)cc3C(=O)O)cc2)cc1` [Compound 53]: under setting [1], the IC50 came out at 5.29e-06 ± 8.4e-07 M. The “IC50 (µM) ± SD, heparanase inhibitory activity” value under setting [3] was “good inhibitory potencies”.
Regarding `O=C(O)c1ccc(Oc2cccc(N3C(=O)c4ccc(Oc5ccc6c(c5)C(=O)N(c5cccc(Oc7ccc(C(=O)O)c(C(=O)O)c7)c5)C6=O)cc4C3=O)c2)cc1C(=O)O` [Compound 36], the IC50 under setting [2] was found to be 6.3e-07 ± 1e-08 M.
For the compound `CC(C)(c1ccc(Oc2ccc3c(c2)C(=O)N(c2cccc(C(=O)O)c2)C3=O)cc1)c1ccc(Oc2ccc3c(c2)C(=O)N(c2cccc(C(=O)O)c2)C3=O)cc1` [Compound 48], the “IC50 (µM) ± SD, heparanase inhibitory activity” value under setting [3] is on record as “significant inhibitory potencies”. Moreover, under setting [2], the IC50 stood at 9.1e-07 ± 1e-07 M.
Take `O=C(CSc1nc2ccccc2[nH]1)Nc1ccc(-c2nc3cc(NC(=O)CSc4nc5ccccc5[nH]4)ccc3o2)cc1` [Compound 33]: where the note is “Table S1”, the “% inhib @2.5 M ± SD” value is 36 ± 5% and the “% inhib @25 M ± SD” value was found to be 58 ± 1%.
On to `O=C(Nc1cccc(C(=O)c2ccccc2)c1)c1ccc(Oc2ccc(C(=O)Nc3cccc(C(=O)c4ccccc4)c3)cc2)cc1` [Compound 40], for which the IC50 under setting [1] is over 5e-06 M.
For `O=C(Nc1ccc(O)cc1C(=O)O)c1ccc(Oc2ccc(C(=O)Nc3ccc(O)cc3C(=O)O)cc2)cc1` [Compound 51], under “Table S1”, the “% inhib @2.5 M ± SD” value was determined as 42 ± 6% and the “% inhib @25 M ± SD” value was determined as 77 ± 4%.
In the case of `O=C(O)c1cc(NC(=O)c2ccc(Oc3ccc(C(=O)Nc4cc(C(=O)O)cc(C(=O)O)c4)cc3)cc2)cc(C(=O)O)c1` [Compound 50], the “IC50 (µM) ± SD, heparanase inhibitory activity” value under setting [3] was “good inhibitory potencies”. Further, the IC50 under setting [2] was determined as 2.01e-06 ± 1.3e-07 M.
On to `O=C(O)c1cc(C(=O)O)cc(N2C(=O)c3ccc(C(=O)c4ccc5c(c4)C(=O)N(c4cc(C(=O)O)cc(C(=O)O)c4)C5=O)cc3C2=O)c1` [Compound 26], for which, under “Table S1”, the “% inhib @2.5 M ± SD” value is on record as 35 ± 1% and the “% inhib @25 M ± SD” value is recorded as 99 ± 6%.
Consider `O=C(Nc1ccc(-c2nc3ccccc3o2)cc1)c1ccc(Oc2ccc(C(=O)Nc3ccc(-c4nc5ccccc5o4)cc3)cc2)cc1` [Compound 39], for which, under “Table S1”, the “% inhib @2.5 M ± SD” value is 60 ± 21% and the “% inhib @25 M ± SD” value stood at 63 ± 16%.
Take `Nc1ccc2cc(S(=O)(=O)O)cc(O)c2c1N=Nc1ccc(NC(=O)Nc2ccc(N=Nc3c(N)ccc4cc(S(=O)(=O)O)cc(O)c34)c(S(=O)(=O)O)c2)cc1S(=O)(=O)O` [Compound 20]: the IC50 under setting [2] is 1.76e-06 ± 2.3e-07 M.
Turning to `O=C(Nc1ccccc1C(=O)O)c1ccc2c(c1)C(=O)N(c1ccc(Oc3ccc(N4C(=O)c5ccc(C(=O)Nc6ccccc6C(=O)O)cc5C4=O)cc3)cc1)C2=O` [Compound 23], the “% inhib @25 M ± SD” value (Table S1) is on record as 96 ± 3%.
On the same count and under the same terms, for `O=C(Nc1cccc(C(=O)Nc2ccc(S(=O)(=O)O)c3cc(S(=O)(=O)O)cc(S(=O)(=O)O)c23)c1)Nc1cccc(C(=O)Nc2ccc(S(=O)(=O)O)c3cc(S(=O)(=O)O)cc(S(=O)(=O)O)c23)c1` [Compound 9] the value was “Not active”; for `O=C(O)c1ccc2c(c1)C(=O)N(NC(=O)c1ccc(Oc3ccc(C(=O)NN4C(=O)c5ccc(C(=O)O)cc5C4=O)cc3)cc1)C2=O` [Compound 25], “Not active”.
Turning to `CC(C)(c1ccc(Oc2ccc3c(c2)C(=O)N(c2ccc(C(=O)O)cc2)C3=O)cc1)c1ccc(Oc2ccc3c(c2)C(=O)N(c2ccc(C(=O)O)cc2)C3=O)cc1` [Compound 49], under setting [3], the “IC50 (µM) ± SD, heparanase inhibitory activity” value is given as “significant inhibitory potencies”. Moreover, the IC50 under setting [2] was found to be 2.35e-06 ± 2.3e-07 M.
Regarding `O=C(Nc1ccc(Sc2ccc(Oc3ccc(Sc4ccc(NC(=O)c5cccc(F)c5)cc4)cc3)cc2)cc1)c1cccc(F)c1` [Compound 47], for the setting “Table S1”, the “% inhib @2.5 M ± SD” value was 30 ± 3% and the “% inhib @25 M ± SD” value is recorded as 66 ± 5%.
On the same counts, the results for `COc1cc(C(=O)Nc2ccc(-c3nc4cc(NC(=O)c5cc(OC)c(OC)c(OC)c5)ccc4[nH]3)cc2)cc(OC)c1OC` [Compound 30] are 11 ± 4% and 1 ± 1%.
On the same counts, the results for `O=C(O)CCC(=O)Nc1ccc(Oc2ccc(S(=O)(=O)c3ccc(Oc4ccc(NC(=O)CCC(=O)O)cc4)cc3)cc2)cc1` [Compound 56] are 20 ± 5% and 51 ± 5%.
In the same order, the values of `O=C(O)c1cc(NC(=O)c2ccc(S(=O)(=O)c3ccc(C(=O)Nc4cc(C(=O)O)cc(C(=O)O)c4)cc3)cc2)cc(C(=O)O)c1` [Compound 52] are 45 ± 7% and 54 ± 8%.
Turning to `O=C(Nc1cccc(Oc2ccc(S(=O)(=O)c3ccc(Oc4cccc(NC(=O)c5ccc(F)cc5)c4)cc3)cc2)c1)c1ccc(F)cc1` [Compound 46], the IC50 under setting [1] was over 5e-06 M.
As for `O=C(O)c1ccc(N2C(=O)c3ccc(Oc4cccc(Oc5ccc6c(c5)C(=O)N(c5ccc(C(=O)O)cc5)C6=O)c4)cc3C2=O)cc1` [Compound 60], where the note is “Table S1”, the “% inhib @2.5 M ± SD” value was 53 ± 12% and the “% inhib @25 M ± SD” value worked out at 65 ± 4%.
`O=C(Nc1nc(-c2ccc3ccccc3c2)cs1)c1ccc(Oc2ccc(C(=O)Nc3nc(-c4ccc5ccccc5c4)cs3)cc2)cc1` [Compound 41]: where the note is “Table S1”, the “% inhib @2.5 M ± SD” value was found to be 54 ± 6% and the “% inhib @25 M ± SD” value was determined as 76 ± 2%.
In the case of `O=C(O)c1ccc2c(c1)C(=O)N(c1cccc(Oc3cccc(Oc4cccc(N5C(=O)c6ccc(C(=O)O)cc6C5=O)c4)c3)c1)C2=O` [Compound 59], under setting [3], the “IC50 (µM) ± SD, heparanase inhibitory activity” value is given as “good inhibitory potency”. Besides, the half-inhibitory concentration (IC50) under setting [2] was 2.08e-06 ± 1.6e-07 M.
